This assay concerns the target T1, Solute carrier family 15 member 2 (Homo sapiens, UniProt Q16348).
T1 sequence (Q16348 whole entry): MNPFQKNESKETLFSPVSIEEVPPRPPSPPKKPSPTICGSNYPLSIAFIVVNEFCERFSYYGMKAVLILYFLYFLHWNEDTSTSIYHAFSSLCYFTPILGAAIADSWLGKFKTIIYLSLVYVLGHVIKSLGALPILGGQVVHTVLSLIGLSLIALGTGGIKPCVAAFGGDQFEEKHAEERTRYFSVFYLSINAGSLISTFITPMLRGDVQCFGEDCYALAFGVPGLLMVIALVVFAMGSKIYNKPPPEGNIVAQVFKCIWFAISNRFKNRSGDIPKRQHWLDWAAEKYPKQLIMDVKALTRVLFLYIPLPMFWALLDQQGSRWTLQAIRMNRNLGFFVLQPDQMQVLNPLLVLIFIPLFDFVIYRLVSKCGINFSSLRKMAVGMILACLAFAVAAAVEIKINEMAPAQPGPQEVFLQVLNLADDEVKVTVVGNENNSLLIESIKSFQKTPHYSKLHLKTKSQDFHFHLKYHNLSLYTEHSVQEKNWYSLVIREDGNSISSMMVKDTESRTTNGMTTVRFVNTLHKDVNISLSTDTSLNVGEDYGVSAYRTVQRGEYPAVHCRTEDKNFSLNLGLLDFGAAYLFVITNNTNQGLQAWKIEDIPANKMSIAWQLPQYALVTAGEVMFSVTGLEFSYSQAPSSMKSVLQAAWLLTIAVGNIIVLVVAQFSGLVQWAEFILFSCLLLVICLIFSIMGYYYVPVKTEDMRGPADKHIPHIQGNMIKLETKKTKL
Nature of the assay: Substrate uptake by the Peptide Transporter 2 (PEPT2, SLC15A2) as assessed by the fluorescent FLIPR membrane potential dye in HEK-293 JumpIN-SLC15A2 cells (PubChem AID: 1794819). The class given is functional, cell-based, HEK293.

From ChEMBL document CHEMBL5209584, “Membrane potential based assay for SLC15A2 using HEK-293 SLC15A2 OE cells” (2022) come the findings set out here.

Molecules are shown by their SMILES. Where “and” joins values, the source holds several entries; their conditions need not be identical. Equal values may be shown once. Square brackets hold non-standard residues; d marks the D form. Peptide text beside a SMILES is read from it. Sar = CNCC(=O)O

Take `NCCC(=O)N[C@@H](Cc1cnc[nH]1)C(=O)O` [CARNOSINE]: a half-maximal response (EC50) required 28 µM. With `CN(CC(=O)O)C(=O)CN` [GLYCYLSARCOSINE] (H-Gly-[Sar]-OH), the EC50 (usually the midpoint of the concentration-response curve) is 123 µM and 39 µM.
